According to publication PMC11435058, “Synthesis of New Thiazole-Privileged Chalcones as Tubulin Polymerization Inhibitors with Potential Anticancer Activities” (Pharmaceuticals, 2024):
Read-outs that look alike come from different tables or passages of the source.

Experiments:
HCT-116 = experiment: NCI-60 anticancer screen (SRB; single dose and five doses); settings: Homo sapiens
NCI-H226 = experiment: as above; settings: Homo sapiens
OVCAR-4 = experiment: as above; settings: Homo sapiens
KM12 = experiment: as above; settings: Homo sapiens
HL-60(TB) = experiment: as above; settings: Homo sapiens
MALME-3M = experiment: as above; settings: Homo sapiens
A549/ATCC = experiment: as above; settings: Homo sapiens
TK-10 = experiment: as above; settings: Homo sapiens
LOX IMVI = experiment: as above; settings: Homo sapiens
MDA-MB-435 = experiment: as above; settings: Homo sapiens
UACC-257 = experiment: as above; settings: Homo sapiens
T-47D = experiment: as above; settings: Homo sapiens, T47D
HCT-15 = experiment: as above; settings: Homo sapiens
[1] = test system: 60 human tumor cell lines panel; experiment: NCI-60 anticancer screen, whole panel (means and ranges over the cell lines); assay type: cell-based; settings: Homo sapiens, 48 h, dose of 10 μM
NCI-H522 = experiment: NCI-60 anticancer screen (SRB; single dose and five doses); settings: Homo sapiens
MCF7 = experiment: as above; settings: Homo sapiens
SNB-19 = experiment: cells; settings: Homo sapiens
HT29 = experiment: NCI-60 anticancer screen (SRB; single dose and five doses); settings: Homo sapiens
UO-31 = experiment: as above; settings: Homo sapiens
U251 = experiment: as above; settings: Homo sapiens
MOLT-4 = experiment: as above; settings: Homo sapiens
HCC-2998 = experiment: as above
K-562 = experiment: as above; settings: Homo sapiens
786-0 = experiment: as above; settings: Homo sapiens
OVCAR-5 = experiment: as above; settings: Homo sapiens
NCI/ADR-RES = experiment: as above; settings: Homo sapiens
SK-OV-3 = experiment: as above; settings: Homo sapiens
OVCAR-3 = experiment: cells; settings: Homo sapiens
SK-MEL-5 = experiment: NCI-60 anticancer screen (SRB; single dose and five doses); settings: Homo sapiens
[2] = 48 h, read-out: Growth Percentage

SMILES: COc1cc(/C=C/C(=O)c2sc(=S)[nH]c2C)cc(OC)c1OC [2p, (E)-1-(4-Methyl-2-Thioxo-2,3-Dihydrothiazol-5-yl)-3-(3,4,5-Trimethoxyphenyl)Prop-2-En-1-One]
- GI50 (HCT-116; HCT-116): 3.16 µM
- IC50 (HCT-116; HCT-116): 3.63 µM
- activity at 10 µM (HCT-116; HCT-116, 48 h, read-out: Growth Percentage): 6.81%
- CC50 (HCT-116; HCT-116, read-out: LC50): 69.2 µM
- IC (TGI) (HCT-116; HCT-116, read-out: TGI): 14.4 µM
- GI50 (NCI-H226; NCI-H226): 3.63 µM
- IC50 (NCI-H226; NCI-H226): 32.4 µM
- activity at 10 µM (NCI-H226; NCI-H226, 48 h, read-out: Growth Percentage): 16.4%
- CC50 (NCI-H226; NCI-H226, read-out: LC50): > 100 µM
- IC (TGI) (NCI-H226; NCI-H226, read-out: TGI): 36.3 µM
- GI50 (OVCAR-4; OVCAR-4): 2.82 µM
- IC50 (OVCAR-4; OVCAR-4): 6.61 µM
- activity at 10 µM (OVCAR-4; OVCAR-4, 48 h, read-out: Growth Percentage): 15.6%
- CC50 (OVCAR-4; OVCAR-4, read-out: LC50): 51.3 µM
- IC (TGI) (OVCAR-4; OVCAR-4, read-out: TGI): 12.6 µM
- GI50 (KM12; KM12): 3.24 µM
- IC50 (KM12; KM12): 6.46 µM
- activity at 10 µM (KM12; KM12, 48 h, read-out: Growth Percentage): 9.52%
- CC50 (KM12; KM12, read-out: LC50): 42.7 µM
- IC (TGI) (KM12; KM12, read-out: TGI): 13.8 µM
- GI50 (HL-60(TB); HL-60): 2.57 µM
- IC50 (HL-60(TB); HL-60): 3.89 µM
- activity at 10 µM (HL-60(TB); HL-60, 48 h, read-out: Growth Percentage): 3.95%
- CC50 (HL-60(TB); HL-60, read-out: LC50): > 100 µM
- IC (TGI) (HL-60(TB); HL-60, read-out: TGI): 11.2 µM
- GI50 (MALME-3M): 5.75 µM
- IC50 (MALME-3M): 17.8 µM
- CC50 (MALME-3M; read-out: LC50): 55 µM
- IC (TGI) (MALME-3M; read-out: TGI): 20.4 µM
- GI50 (A549/ATCC; A549): 3.55 µM
- IC50 (A549/ATCC; A549): 5.01 µM
- activity at 10 µM (A549/ATCC; A549, 48 h, read-out: Growth Percentage): 26.6%
- CC50 (A549/ATCC; A549, read-out: LC50): 44.7 µM
- IC (TGI) (A549/ATCC; A549, read-out: TGI): 13.8 µM
- GI50 (TK-10; TK-10): 5.01 µM
- IC50 (TK-10; TK-10): 16.2 µM
- activity at 10 µM (TK-10; TK-10, 48 h, read-out: Growth Percentage): 53%
- CC50 (TK-10; TK-10, read-out: LC50): 47.9 µM
- IC (TGI) (TK-10; TK-10, read-out: TGI): 17.8 µM
- GI50 (LOX IMVI): 3.24 µM
- IC50 (LOX IMVI): 4.47 µM
- activity at 10 µM (LOX IMVI; [2]): 17.1%
- CC50 (LOX IMVI; read-out: LC50): 38.9 µM
- IC (TGI) (LOX IMVI; read-out: TGI): 12 µM
- GI50 (MDA-MB-435; MDA-MB-435): 2.57 µM
- IC50 (MDA-MB-435; MDA-MB-435): 4.47 µM
- activity at 10 µM (MDA-MB-435; MDA-MB-435, 48 h, read-out: Growth Percentage): 11%
- CC50 (MDA-MB-435; MDA-MB-435, read-out: LC50): > 100 µM
- IC (TGI) (MDA-MB-435; MDA-MB-435, read-out: TGI): 10.5 µM
- GI50 (UACC-257; UACC-257): 5.13 µM
- IC50 (UACC-257; UACC-257): 18.6 µM
- activity at 10 µM (UACC-257; UACC-257, 48 h, read-out: Growth Percentage): 42.1%
- CC50 (UACC-257; UACC-257, read-out: LC50): 75.9 µM
- IC (TGI) (UACC-257; UACC-257, read-out: TGI): 21.9 µM
- GI50 (T-47D): 2.19 µM
- IC50 (T-47D): 7.24 µM
- activity at 10 µM (T-47D; [2]): -1.59%
- CC50 (T-47D; read-out: LC50): > 100 µM
- IC (TGI) (T-47D; read-out: TGI): 13.2 µM
- GI50 (HCT-15; HCT-15): 3.24 µM
- IC50 (HCT-15; HCT-15): 4.17 µM
- activity at 10 µM (HCT-15; HCT-15, 48 h, read-out: Growth Percentage): -3.26%
- CC50 (HCT-15; HCT-15, read-out: LC50): 74.1 µM
- IC (TGI) (HCT-15; HCT-15, read-out: TGI): 15.5 µM
- activity at 10 µM ([1]; mean over the tested cell lines, read-out: Mean growth percentage): 14.9%
- activity at 10 µM ([1]; range over the cell lines, read-out: growth percentages against most of the tested cells (lowest to highest)): -64.6 to 96.5%
- GI50 (NCI-H522; NCI-H522): 3.16 µM
- IC50 (NCI-H522; NCI-H522): 7.59 µM
- activity at 10 µM (NCI-H522; NCI-H522, 48 h, read-out: Growth Percentage): 16.3%
- CC50 (NCI-H522; NCI-H522, read-out: LC50): 40.7 µM
- IC (TGI) (NCI-H522; NCI-H522, read-out: TGI): 12.3 µM
- GI50 (MCF7; MCF7): 3.02 µM
- IC50 (MCF7; MCF7): 4.27 µM
- activity at 10 µM (MCF7; MCF7, 48 h, read-out: Growth Percentage): 9.35%
- CC50 (MCF7; MCF7, read-out: LC50): 45.7 µM
- IC (TGI) (MCF7; MCF7, read-out: TGI): 10.7 µM
- GI50 (SNB-19; SNB-19): 5.01 µM
- IC50 (SNB-19; SNB-19): 13.2 µM
- activity at 10 µM (SNB-19; SNB-19, 48 h, read-out: Growth Percentage): 19.6%
- CC50 (SNB-19; SNB-19, read-out: LC50): 43.6 µM
- IC (TGI) (SNB-19; SNB-19, read-out: TGI): 17.8 µM
- GI50 (HT29; HT-29): 3.47 µM
- IC50 (HT29; HT-29): 4.57 µM
- activity at 10 µM (HT29; HT-29, 48 h, read-out: Growth Percentage): 40.1%
- CC50 (HT29; HT-29, read-out: LC50): > 100 µM
- IC (TGI) (HT29; HT-29, read-out: TGI): 13.5 µM
- GI50 (UO-31; UO-31): 3.02 µM
- IC50 (UO-31; UO-31): 7.76 µM
- IC (TGI) (UO-31; UO-31, read-out: TGI): 15.5 µM
- GI50 (U251; U-251): 3.02 µM
- IC50 (U251; U-251): 4.17 µM
- activity at 10 µM (U251; U-251, 48 h, read-out: Growth Percentage): 15%
- CC50 (U251; U-251, read-out: LC50): 43.6 µM
- IC (TGI) (U251; U-251, read-out: TGI): 12 µM
- GI50 (MOLT-4; MOLT-4): 2.88 µM
- IC50 (MOLT-4; MOLT-4): 4.17 µM
- activity at 10 µM (MOLT-4; MOLT-4, 48 h, read-out: Growth Percentage): 9.11%
- CC50 (MOLT-4; MOLT-4, read-out: LC50): > 100 µM
- IC (TGI) (MOLT-4; MOLT-4, read-out: TGI): 22.9 µM
- GI50 (HCC-2998; Homo sapiens, HCC 2998): 5.13 µM
- IC50 (HCC-2998; Homo sapiens, HCC 2998): 11.8 µM
- activity at 10 µM (HCC-2998; Homo sapiens, HCC 2998, 48 h, read-out: Growth Percentage): 19%
- CC50 (HCC-2998; Homo sapiens, HCC 2998, read-out: LC50): 44.7 µM
- TGI (HCC-2998; five-dose, Colon Cancer HCC-2998): 17.38 µM
- GI50 (K-562; K562): 3.02 µM
- IC50 (K-562; K562): 3.72 µM
- activity at 10 µM (K-562; K562, 48 h, read-out: Growth Percentage): 8.21%
- CC50 (K-562; K562, read-out: LC50): > 100 µM
- IC (TGI) (K-562; K562, read-out: TGI): > 100 µM
- GI50 (786-0; 786-0): 4.57 µM
- IC50 (786-0; 786-0): 6.61 µM
- activity at 10 µM (786-0; 786-0, 48 h, read-out: Growth Percentage): 21.1%
- CC50 (786-0; 786-0, read-out: LC50): 97.7 µM
- IC (TGI) (786-0; 786-0, read-out: TGI): 20.9 µM
- GI50 (OVCAR-5; OVCAR-5): 3.8 µM
- IC50 (OVCAR-5; OVCAR-5): 12.3 µM
- activity at 10 µM (OVCAR-5; OVCAR-5, 48 h, read-out: Growth Percentage): 6.56%
- CC50 (OVCAR-5; OVCAR-5, read-out: LC50): 43.6 µM
- IC (TGI) (OVCAR-5; OVCAR-5, read-out: TGI): 15.1 µM
- GI50 (NCI/ADR-RES): 2.4 µM
- IC50 (NCI/ADR-RES): 4.37 µM
- activity at 10 µM (NCI/ADR-RES; [2]): 0.58%
- CC50 (NCI/ADR-RES; read-out: LC50): > 100 µM
- IC (TGI) (NCI/ADR-RES; read-out: TGI): 7.41 µM
- GI50 (SK-OV-3; SK-OV-3): 7.41 µM
- IC50 (SK-OV-3; SK-OV-3): 46.8 µM
- activity at 10 µM (SK-OV-3; SK-OV-3, 48 h, read-out: Growth Percentage): 31.2%
- CC50 (SK-OV-3; SK-OV-3, read-out: LC50): > 100 µM
- IC (TGI) (SK-OV-3; SK-OV-3, read-out: TGI): > 100 µM
- GI50 (OVCAR-3; OVCAR-3): 2.45 µM
- activity at 10 µM (OVCAR-3; OVCAR-3, 48 h, read-out: Growth Percentage): -25.2%
- IC50 (OVCAR-3; OVCAR-3, five-dose, Ovarian Cancer OVCAR-3): 5.25 µM
- CC50 (OVCAR-3; OVCAR-3, read-out: LC50): 25.7 µM
- IC (TGI) (OVCAR-3; OVCAR-3, read-out: TGI): 6.92 µM
- GI50 (SK-MEL-5; SK-MEL-5): 1.58 µM
- IC50 (SK-MEL-5; SK-MEL-5): 3.31 µM
- activity at 10 µM (SK-MEL-5; SK-MEL-5, 48 h, read-out: Growth Percentage): -64.6%
- CC50 (SK-MEL-5; SK-MEL-5, read-out: LC50): 10 µM
- IC (TGI) (SK-MEL-5; SK-MEL-5, read-out: TGI): 3.98 µM
